Patent publication CN116139126A, “表没食子儿茶素-3-没食子酸酯在制备嗜水气单胞菌的群体感应抑制剂中的应用” (Yueyang Yumeikang Bio Tech Co ltd, priority 2023, dated 2023)
Converted amounts (≈) assume the structure as drawn. “Also recorded” adds a separate entry of the source. Read-outs that look alike come from different tables or passages of the source.

Columns and labels:
[1] = tested on: Aeromonas hydrophila (嗜水气单胞菌); assay: Protection of zebrafish infected with A. hydrophila (survival); format: in vivo, Aeromonas hydrophila AH08; zebrafish; details: for time of death of the first zebrafish: injected after intraperitoneal infection; for survival rate: model group 0
[2] = tested on: AI-2 of Aeromonas hydrophila (AI-2); assay: AI-2 bioluminescence assay with V. harveyi BB170 reporter; format: cell-based, Aeromonas hydrophila AH08; details: compared with control (no EGCG); 16-256 μg/mL
[3] = tested on: Aeromonas hydrophila (嗜水气单胞菌); assay: MIC/MBC by twofold dilution in TSB; format: cell-based, Aeromonas hydrophila AH08; details: 30 °C, 24 h; for MIC: TSB
[4] = tested on: Aeromonas hydrophila (嗜水气单胞菌); assay: microbe, parasite or virus in culture; details: 18 h
[5] = tested on: Aeromonas hydrophila (嗜水气单胞菌); assay: Growth curve of A. hydrophila; format: cell-based, Aeromonas hydrophila AH08
[6] = tested on: pro-inflammatory cytokine genes IL-1β, IL-8, IL-6, TNF-α (促炎细胞因子基因); assay: Pro-inflammatory cytokine gene expression in zebrafish intestine (qRT-PCR); details: 6 h after infection
[7] = tested on: virulence factor and QS genes of Aeromonas hydrophila (嗜水气单胞菌毒力因子及QS基因); assay: qRT-PCR of quorum sensing and virulence genes; format: cell-based, Aeromonas hydrophila AH08; details: normalised to rpob
[8] = tested on: Aeromonas hydrophila (嗜水气单胞菌); details: swarming and swimming, 64-256 μg/mL
[9] = tested on: Aeromonas hydrophila (嗜水气单胞菌); assay: Histopathology of infected zebrafish (gill, muscle, liver; H&E); format: in vivo, Aeromonas hydrophila AH08; zebrafish
[10] = tested on: Aeromonas hydrophila biofilm (嗜水气单胞菌生物膜); assay: Biofilm inhibition test (crystal violet); format: cell-based, Aeromonas hydrophila AH08; details: for inhibition at 128 µg/mL: Aeromonas hydrophila, 128 μg/ml, 30 °C, read-out: inhibition rate of biofilm
[11] = tested on: Aeromonas hydrophila (嗜水气单胞菌); format: in vivo, Aeromonas hydrophila AH08; zebrafish; details: for reduction of bacterial adhesion CFU: compared with model group
[12] = read-out: inhibition rate of swarming
[13] = read-out: inhibition rate of swimming

## O=C(O[C@@H]1Cc2c(O)cc(O)cc2O[C@@H]1c1cc(O)c(O)c(O)c1)c1cc(O)c(O)c(O)c1 [EGCG, 表没食子儿茶素-3-没食子酸酯]
[1]; 50 mg/kg
  time of death of the first zebrafish: 18 h
[1]; 100 mg/kg
  time of death of the first zebrafish: 48 h
[1]; high dose group (100 mg/kg), 48 h after infection
  survival rate: 88.9%
[1]; low dose group (10 mg/kg), 48 h after infection, compared with model group
  survival rate (in words): 与模型组的生存率相同
[1]; medium dose group (50 mg/kg), 48 h after infection
  survival rate: 88.9%
[2]
  AI-2 secreted by A. hydrophila: 明显减少,并呈浓度依赖性
[3]; Aeromonas hydrophila, TSB agar
  MBC: 4100 µg/mL (≈ 8940 µM)
[3]; Aeromonas hydrophila, read-out: MIC
  MIC: 1020 µg/mL (≈ 2230 µM)
[3]
  MIC: 1024 µg/mL (≈ 2230 µM)
[4]; [12]
  inhibition at 128 µg/mL: 29.7%
  inhibition at 256 µg/mL: 33%
[4]; [13]
  inhibition at 64 µg/mL: 16%
  inhibition at 128 µg/mL: 28.3%
  inhibition at 256 µg/mL: 66%
[5]; 0-256 μg/mL, 30 °C, after 12 h
  inhibition of growth after 12 h (growth curve): 没有明显的抑制作用
[5]; 0-256 μg/mL, 30 °C, od600nm
  effect on lag phase (growth curve): 增加了细菌的滞后期; also recorded: 延缓了嗜水气单胞菌进入对数生长期的时间
[5]; 64-256 μg/ml, compared with control without EGCG
  bactericidal effect: 不直接产生杀菌作用
[5]; sub-MIC, after 24 h
  effect on growth after 24 h: 没有明显影响
[6]
  expression of IL-1β: 显著抑制
  expression of IL-6: 显著抑制
  expression of IL-8: 显著抑制
  expression of TNF-α: 显著抑制
[7]; AI-1 related gene
  expression of LuxR: 不影响
  expression of ahyI: 显著抑制
  expression of ahyR: 显著抑制
[7]; AI-2 synthase
  expression of LuxS: 显著抑制
[7]; AI-3 related gene
  expression of QseB: 显著抑制
[7]; elastase gene
  expression of ahyB: 显著下调
[7]; flagellar gene
  expression of flgL: 显著下调
[7]; hemolysin gene
  expression of ahh1: 显著下调
  expression of hly: 显著下调
[8]
  inhibition of motility (in words): 显著抑制嗜水气单胞菌的运动性,且呈浓度依赖性
[9]; dose-dependent
  protection of tissues of infected zebrafish: 显著的保护作用
[9]; liver, muscle and gill of infected zebrafish
  pathological damage caused by A. hydrophila: 明显改善
[9]; zebrafish liver, muscle and gill
  inflammatory cell infiltration: 显著减少
[10]; 16-256 μg/mL
  inhibition of biofilm formation (in words): 显著抑制
[10]; 24 h
  concentration dependence of biofilm inhibition: 呈浓度依赖性
  inhibition at 128 µg/mL: 38.3%
[10]; 48 h
  inhibition at 128 µg/mL: 26.6%
[11]; 10 mg/kg
  reduction of bacterial adhesion CFU: 21.22%
[11]; 50 mg/kg
  reduction of bacterial adhesion CFU: 33.47%
[11]; 100 mg/kg
  reduction of bacterial adhesion CFU: 38.00%
[11]; after EGCG treatment
  adhesion of A. hydrophila to zebrafish (in words): 显著降低
  bacterial load of zebrafish (in words): 显著降低
